Where no end group is shown, it is not given here.
How the values were obtained:
Acinetobacter baumannii = assay type: cell-based; details: data not shown
[1] = system: IL-1β, GM-CSF, KC, RANTES, MIP-1α in BAL fluid; assay type: in vivo, BALB/c mice

Substance: GLLRKGGEKIGEKLKKIGQKIKNFFQKLVPQPEQ [mCRAMP, mouse cathelicidin peptide]
- antimicrobial activity of the preparation (Acinetobacter baumannii): confirmed

Substance: LLGDFFRKSKEKIGKEFKRIVQRIKDFLRNLVPRTES [LL-37, human cathelicidin peptide generated from hCAP-18]
- BAL fluid concentration of GM-CSF compared with PR/8 infected control animals ([1]; mouse, in vivo): significantly lower
- BAL fluid concentration of IL-1β compared with PR/8 infected control animals ([1]; mouse, in vivo): significantly lower
- BAL fluid concentration of KC ([1]; mouse, in vivo): unchanged compared with uninfected controls
- BAL fluid concentration of MIP-1α (non-significant increase after infection) ([1]; mouse, in vivo): this increase was ameliorated
- BAL fluid concentration of RANTES ([1]; mouse, in vivo): unchanged compared with uninfected controls
- BAL fluid cytokine concentrations in the absence of influenza virus infection ([1]; uninfected mice, nebulized peptide, BAL on day 3): did not significantly alter cytokine concentrations
- antimicrobial activity of the preparation (Acinetobacter baumannii): confirmed

Substance: RGGRLCYCRRRFCVCVGR-NH2 (also: bicyclic or more (positions not given here)) [Protegrin-1, porcine neutrophil-derived cathelicidin peptide with two disulfide bridges]
- antimicrobial activity of the preparation (Acinetobacter baumannii): confirmed
